# Measurements as given in PubChem BioAssay (NCI).
#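 The compound was tested at five concentrations on cells cultured in 96-well plates, with a 48-hour exposure period. GI50: concentration for 50% inhibition of growth. The concentration for full growth arrest is given as TGI.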
# Test system: MDA-MB-468 breast
# Experiment: DTP human tumour cell line panel, 48 h
Structure (SMILES),GI50 [µM],TGI [µM]
C#C[C@]1(O)CC[C@H]2[C@@H]3CC=C4c5sc(NCc6ccccc6)nc5CC[C@]4(C)[C@H]3CC[C@@]21C,4.4,18.3
CCCCCCCCCCC[C@@H](C[C@H]1OC(=O)[C@H]1CCCCCC)OC(=O)[C@@H](CC(C)C)NC=O,14.1,48.3
COc1cc(-c2nc(-c3ccc(-c4nc5ccc(F)cc5[nH]4)cc3)no2)cc(OC)c1OC,3.01,17.5
COc1cc(C(=O)O/N=C(\N)Cc2cccc3ccccc23)cc(OC)c1OC,15.7,33.2
COc1cc(-c2nc3cc(Cl)c(Cl)cc3[nH]2)ccc1OCC(=O)N=Nc1c(O)[nH]c2ccc(Cl)cc12,0.256,0.697
COc1cc(/C(=C2/O[C@@H]([C@H]3COC(C)(C)O3)[C@H]3OC(C)(C)O[C@@H]23)c2ccc3c(c2)OCO3)cc(OC)c1OC,7.93,> 25
CNC(=O)c1cc(Oc2ccc3nc(N[C@@H]4CCCC[C@H]4O)sc3c2)ccn1,23.7,> 89.7
Cc1cc(NCc2cc(Nc3ccnc4cc(Cl)ccc34)ccc2F)nc(N2CCSCC2)n1,1.92,4.77
NC(=O)c1sc(-n2cnc3ccc(C(F)(F)F)cc32)cc1OCc1ccccc1Br,0.349,0.977
O=C(NO)c1ccc(Cn2c(=O)n(-c3ccccc3)c(=O)c3ccccc32)cc1,0.542,2.23
CCCCCCCCNC(C)C(O)c1ccc(SC(C)C)cc1 (stereo not given),1.57,3.24
CCN(CC)CCOc1ccc(C(=C(c2ccccc2)C2CCCC2)c2ccc(OCCN(CC)CC)cc2)cc1,2.3,5.51
CCOC(=O)c1ccccc1SC(C[N+](=O)[O-])c1ccccc1 (stereo not given),1.71,4.06
Fc1ccc([C@@H]2CCNC[C@H]2COc2ccc3c(c2)OCO3)cc1,5.33,21
CCCCCCCCCCCC1=NC(C)(C)CN1CC(C)O (stereo not given),2.11,10.9
OCCn1cc(-c2cnc3nnn(Cc4ccc5ncccc5c4)c3n2)cn1,98.8,> 100
O=C1NC(=O)[C@@H](c2c[nH]c3ccccc23)[C@@H]1c1c[nH]c2ccccc12,> 25,> 25
CCSc1ccc([C@@H]2[C@@H](N)C(=O)N2c2cc(OC)c(OC)c(OC)c2)cc1,0.0775,> 100
O=C(c1nn(-c2ccc(Cl)cc2)cc1O)n1nc(C(F)(F)F)cc1-c1ccccc1,4.5,> 100
COc1ccc(-c2nnc(SCC(=O)Nc3ccc(C(=O)/C=C/c4cc(OC)c(OC)c(OC)c4)cc3)n2-c2ccccc2)cc1OC,4.61,> 10
CN1CCN(c2ccc3nc(-c4[nH]ncc4Nc4ncnc5c4OCCCN5)[nH]c3c2)CC1,< 0.01,0.0211
COc1ccc2c(c1)[nH]c(=O)c1c3cc(OC)c(OC)cc3cn21,0.0208,0.0492
CCOC(=O)c1ccc(N(C=O)CCC(=O)CCl)cc1,0.382,2.13
CC[C@H](C)[C@H]1NC(=O)[C@@H]([C@H](O)C(C)C)NC(=O)[C@@H](C)N(C)C(=O)[C@H](C)N(C)C(=O)[C@H](CC(C)C)NC(=O)[C@H](CC(C)C)N(C)C(=O)[C@H](C)N(C)C1=O,0.536,10.5
COc1ccc(C(=O)/C=C/c2cc(-c3ccc4c(c3)OCO4)n[nH]2)cc1OC,1.86,4.52
